Measurements published in patent publication US9000008B2, “Amides of acetic and propionic acids” (Bayer Intellectual Property GmbH, priority 2002, dated 2015).
Counter-ions that a name gives are not always drawn.

biological target: α7 nAChR (Rattus norvegicus (Rat), UniProt Q05941); assay: [3H]-methyllycaconitine binding assay, rat brain membranes; details: inhibition of [3H]-methyllycaconitine binding to rat brain membranes; Ki=IC50/(1+L/KD)
Procedure: 1. Determination of the Affinity of Test Substances for α7 nAChR by Inhibition of [^3H]-Methyllycaconitine Binding to Rat Brain Membranes
The [^3H]-methyllycaconitine binding assay is a modification of the method described by Davies et al. (Neuropharmacol. 1999, 38, 679-690).
Rat brain tissue (hippocampus or whole brain) is homogenized in homogenization buffer (10% w/v). [0.32 M sucrose, 1 mM EDTA; 0.1 mM phenylmethylsulfonyl fluoride (PMSF), 0.01% (w/v) NaN3, pH 7.4, 4° C.] at 600 rpm in a glass homogenizer. The homogenate is centrifuged (1000×g, 4° C., 10 min) and the supernatant is removed. The pellet is resuspended (20% w/v) and the suspension is centrifuged (1000×g, 4° C., […]). The two supernatants are combined and centrifuged (15 000×g, 4° C., 30 min). The pellet obtained in this way is referred to as the P2 fraction.
The P2 pellet is washed twice with binding buffer (50 mM Tris-HCl, 1 mM MgCl2, 120 mM NaCl, 5 mM KCl, 2 mM CaCl2, pH 7.4), and centrifuged (15 000×g, 4° C., 30 min).
The P2 membranes are resuspended in binding buffer and incubated in a volume of 250 μl (amount of membrane protein 0.1-0.5 mg) in the presence of 1-5 nM [^3H]methyllycaconitine, 0.1% (w/v) BSA (bovine serum albumin) and various concentrations of the test substance at 21° C. for 2.5 h. The non-specific binding is determined by incubation in the presence of 1 μM α-bungarotoxin or 100 μM nicotine or 10 μM MLA (methyllycaconitine).
The incubation is stopped by adding 4 ml of PBS (20 mM Na2HPO4, 5 mM KH2PO4, 150 mM NaCl, pH 7.4, 4° C.) and filtering through type A/E glass fiber filters (Gelman Sciences) which have previously been placed in 0.3%. (v/v) polyethyleneimine (PEI) for 3 h. The filters are washed twice with 4 ml of PBS (4° C.), and the bound radioactivity is determined by scintillation measurement. All the assays are carried out in triplicate. The dissociation constant Ki of the test substance was determined from the IC50 of the compounds (concentration of the test substance at which 50% of the ligand bound to the receptor is displaced), the dissociation constant KD and the concentration L of [^3H]-methyllycaconitine using the equation Ki=IC50/(1+L/KD).

Sequence of α7 nAChR (Q05941 23-502): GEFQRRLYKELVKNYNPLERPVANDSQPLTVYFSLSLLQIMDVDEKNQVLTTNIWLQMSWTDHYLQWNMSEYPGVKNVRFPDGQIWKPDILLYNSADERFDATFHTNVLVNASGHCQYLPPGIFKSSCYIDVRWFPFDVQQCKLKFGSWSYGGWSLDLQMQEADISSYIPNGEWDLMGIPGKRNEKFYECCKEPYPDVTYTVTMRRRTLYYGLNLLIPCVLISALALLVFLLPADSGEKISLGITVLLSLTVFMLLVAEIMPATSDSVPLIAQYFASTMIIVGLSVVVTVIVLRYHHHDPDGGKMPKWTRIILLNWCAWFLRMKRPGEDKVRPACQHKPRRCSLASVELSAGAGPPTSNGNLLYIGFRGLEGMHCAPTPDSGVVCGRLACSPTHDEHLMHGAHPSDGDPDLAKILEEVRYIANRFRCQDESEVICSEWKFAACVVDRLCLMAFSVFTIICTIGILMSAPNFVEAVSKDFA

Going from `O=C(CC1CN2CCC1CC2)Nc1cc2cccc(Br)c2s1` (stereo not shown) [Example 1, 2-(1-Azabicyclo[2.2.2]oct-3-yl)-N-(7-bromo-1-benzothien-2-yl)acetamide hydrochloride] to `O=C(CC1CN2CCC1CC2)Nc1ccc2cccnc2c1` (stereo not shown) [Example 3, 2-(1-Azabicyclo[2.2.2]oct-3-yl)-N-(7-quinolinyl)acetamide hydrochloride], the Ki rises from 120 nM to 280 nM (2.3-fold). The first binds more tightly here.

Going from `O=C(CC1CN2CCC1CC2)Nc1ccc2ccccc2c1` (stereo not shown) [Example 4, 2-(1-Azabicyclo[2.2.2]oct-3-yl)-N-(2-naphthyl)acetamide hydrochloride] to `O=C(CC1CN2CCC1CC2)Nc1ccc2cccc([N+](=O)[O-])c2c1` (stereo not shown) [Example 5, 2-(1-Azabicyclo[2.2.2]oct-3-yl)-N-(8-nitro-2-naphthyl)acetamide hydrochloride], the Ki rises from 42 nM to 170 nM (4-fold).
